Target: T1, Human HPK1, catalytic domain (Homo sapiens, UniProt Q92918)
T1 construct: purchased Carna
T1 sequence (Q92918 1-346): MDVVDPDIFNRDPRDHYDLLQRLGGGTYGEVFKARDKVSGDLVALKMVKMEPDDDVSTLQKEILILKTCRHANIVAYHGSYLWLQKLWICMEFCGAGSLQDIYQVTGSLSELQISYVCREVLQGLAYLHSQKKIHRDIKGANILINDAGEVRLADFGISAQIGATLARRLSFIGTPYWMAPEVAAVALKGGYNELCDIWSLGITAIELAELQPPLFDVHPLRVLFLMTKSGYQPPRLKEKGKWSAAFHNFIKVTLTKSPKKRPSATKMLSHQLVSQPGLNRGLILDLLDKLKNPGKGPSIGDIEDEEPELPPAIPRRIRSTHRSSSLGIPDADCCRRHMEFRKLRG
Test: HPK1-SLP76 TR-FRET assay
Assay type: biochemical
Conditions: 75 pM HPK1, 10 uM ATP, 10 nM SLP76, 30 min compound pre-incubation

SMILES	IC50
Cn1ncc(Nc2ncc(C(N)=O)c(Nc3cccc4c3CCNC4=O)n2)c1C(F)(F)F [Example 7-56, 2-{[1-methyl-5-(trifluoromethyl)-1H-pyrazol-4-yl]amino}-4-[(1-oxo-1,2,3,4-tetrahydroisoquinolin-5-yl)amino]pyrimidine-5-carboxamide]	249 nM
COc1cc2c(cc1Nc1ncc(C(N)=O)c(Nc3cc(C)nn3-c3ccccc3)n1)CN(C)CC2 [Example 7-92, 2-((6-methoxy-2-methyl-1,2,3,4-tetrahydroisoquinolin-7-yl)amino)-4-((3-methyl-1-phenyl-1H-pyrazol-5-yl)amino)pyrimidine-5-carboxamide]	10.9 nM
CC(N)c1cccc(Nc2nc(Nc3cc4c(cc3F)CCN(C)C4)ncc2C(N)=O)c1 (stereo not shown) [Example 2-7, 4-{[3-(1-aminoethyl)phenyl]-amino}-2-[(6-fluoro-2-methyl-1,2,3,4-tetrahydroisoquinolin-7-yl)amino]pyrimidine-5-carboxamide]	0.24 nM
COc1cc2c(cc1Nc1ncc(C(N)=O)c(Nc3cc(C4CC4)nn3C)n1)CN(C)CC2 [Example 7-82, 4-((3-cyclopropyl-1-methyl-1H-pyrazol-5-yl)amino)-2-((6-methoxy-2-methyl-1,2,3,4-tetrahydroisoquinolin-7-yl)amino)pyrimidine-5-carboxamide]	651 nM
COc1cc2c(cc1Nc1ncc(C(N)=O)c(Nc3c(C)nn(C)c3C)n1)CN(C)CC2 [Example 7-80, 2-((6-methoxy-2-methyl-1,2,3,4-tetrahydroisoquinolin-7-yl)amino)-4-((1,3,5-trimethyl-1H-pyrazol-4-yl)amino)pyrimidine-5-carboxamide]	0.91 nM
COc1cc2c(cc1Nc1ncc(C(N)=O)c(Nc3c(F)cccc3OC(F)F)n1)CN(C)CC2 [Example 4-31, 4-{[2-(difluoromethoxy)-6-fluorophenyl]amino}-2-1(6-methoxy-2-methyl-1,2,3,4-tetrahydroisoquinolin-7-yl)amino|pyrimidine-5-carboxamide]	0.2 nM
Cn1ncc(Nc2ncc(C(N)=O)c(Nc3cccc4c3CCNC4=O)n2)c1C(F)F [Example 7-54, 2-{[5-(difluoromethyl)-1-methyl-1H-pyrazol-4-yl]amino}-4-[(1-oxo-1,2,3,4-tetrahydroisoquinolin-5-yl)amino]pyrimidine-5-carboxamide]	82.5 nM
CN1CCc2cc(F)c(Nc3ncc(C(N)=O)c(Nc4ccccc4CO)n3)cc2C1 [Example 7-42, 2-[(6-fluoro-2-methyl-1,2,3,4-tetrahydroisoquinolin-7-yl)amino]-4-{[2-(hydroxymethyl)phenyl]amino}py-rimidine-5-carboxamide]	0.12 nM
NC(=O)c1cnc(Nc2cnn(C3CCC3)c2)nc1Nc1cccc2c1CCNC2=O [Example 7-51, 2-[(1-cyclobutyl-1H-pyrazol-4-yl)amino]-4-[(1-oxo-1,2,3,4-tetrahydroisoquinolin-5-yl)amino]pyrimidine-5-carboxamide]	4.21 nM
N#CC1(c2ccc(Nc3ncc(C(N)=O)c(Nc4ccccc4CO)n3)cc2)CC1 [Example 7-108, 2-{[4-(1-cyanocyclopropyl)phenyl]amino}-4-{[2-(hydroxymethyl)phenyl]amino}py-rimidine-5-carboxamide]	4.17 nM
CNC(=O)c1cccc(Nc2nc(Nc3cc4c(cc3OC)CCN(C)C4)ncc2C(N)=O)c1 [Example 7-38, 2-[(6-methoxy-2-methyl-1,2,3-tetrahydroisoquinolin-7-yl)amino]-4-{[3-(methylcarbamoyl)phenyl]amino} pyrimidine-5-carboxamide]	7.77 nM
CCC(C)c1ccccc1Nc1nc(Nc2cc3c(cc2OC)CCN(C)C3)ncc1C(N)=O (stereo not shown) [Example 7-23, 4-{[2-(butan-2-yl)phenyl]amino}-2-[(6-methoxy-2-methyl-1,2,3,4-tetrahydroisoquinolin-7-yl)amino]pyrimidine-5-carboxamide]	0.17 nM

Other lines, results leading:

IC50	SMILES
0.18 nM	COc1cc2c(cc1Nc1ncc(C(N)=O)c(Nc3ccccc3Br)n1)CN(C1CC(CO)C1)CC2 (single isomer, unassigned) [Example 9-4, 4-((2-bromophenyl)amino)-2-((2-(3-(hydroxymethyl)cyclobutyl)-6-methoxy-1,2,3,4-tetrahydroisoquinolin-7-yl)amino)pyrimidine-5-carboxamide]
0.97 nM	CN1CCc2cc(F)c(Nc3ncc(C(N)=O)c(NC4CCc5cc(F)c(F)cc54)n3)cc2C1 (stereo not shown) [Example 26-54, 4-[(5,6-difluoro-2,3-dihydro-1H-inden-1-yl)amino]-2-[(6-fluoro-2-methyl-1,2,3,4-tetrahydroisoquinolin-7-yl)amino]pyrimidine-5-carboxamide]
5.05 nM	CC(C)N1CCn2nc(Nc3ncc(C(N)=O)c(Nc4cccc5c4CCNC5)n3)cc2CC1=O [Example 24-1, 2-((6-isopropyl-5-oxo-5,6,7,8-tetrahydro-4H-pyrazolo[1,5-d][1,4]diazepin-2-yl)amino)-4-((1,2,3,4-tetrahydroisoquinolin-5-yl)amino)pyrimidine-5-carboxamide]
0.26 nM	COc1cc2c(cc1Nc1ncc(C(N)=O)c(NC3CCCCCC3)n1)CN(C)CC2 [Example 26-1, 4-(cycloheptylamino)-2-[(6-methoxy-2-methyl-1,2,3,4-tetrahydroisoquinolin-7-yl)amino]pyrimidine-5-carboxamide]
3.27 nM	COc1cc2c(cc1Nc1ncc(C(N)=O)c(Nc3ccccc3Br)n1)CN(C1CC(OC)C1)CC2 (stereo not shown) [Example 9-9, 4-[(2-bromophenyl)amino]-2-{[6-methoxy-2-(3-methoxycyclobutyl)-1,2,3,4-tetrahydroisoquinolin-7-yl]amino}pyrimidine-5-carboxamide]
9.48 nM	COc1cc(C2CCNC2)ccc1Nc1ncc(C(N)=O)c(Nc2ccccc2Br)n1 (stereo not shown) [Example 8-3, 4-((2-bromophenyl)amino)-2-((2-methoxy-4-(pyrrolidin-3-yl)phenyl)amino)pyrimidine-5-carboxamide]
26 nM	COc1cc2c(cc1Nc1ncc(C(N)=O)c(NC3CCN(C4CC4)C3)n1)CN(C)CC2 (stereo not shown) [Example 26-11, 4-[(1-cyclopropylpyrrolidin-3-yl)amino]-2-[(6-methoxy-2-methyl-1,2,3,4-tetrahydroisoquinolin-7-yl)amino]pyrimidine-5-carboxamide]
78.8 nM	Cn1cc(Nc2ncc(C(N)=O)c(N[C@H](CO)C3CCCCC3)n2)cn1 [Example 26-49, 4-{[(1S)-1-cyclohexyl-2-hydroxyethyl]amino}-2-[(1-methyl-1H-pyrazol-4-yl)amino]pyrimidine-5-carboxamide]
3.31 nM	CC(C)(C)c1cccc(Nc2ncc(C(N)=O)c(Nc3cccc4c3CCNC4=O)n2)c1 [Example 25-20, 2-[(3-tert-butylphenyl)amino]-4-[(1-oxo-1,2,3,4-tetrahydroisoquinolin-5-yl)amino]pyrimidine-5-carboxamide]
333 nM	NC(=O)c1cnc(Nc2ccc(F)cc2F)nc1Nc1cccc2c1CCNC2=O [Example 25-17, 2-[(2,4-difluorophenyl)amino]-4-[(1-oxo-1,2,3,4-tetrahydroisoquinolin-5-yl)amino]pyrimidine-5-carboxamide]
210 nM	CCc1ccccc1Nc1ncc(C(N)=O)c(Nc2cccc3c2CCNC3=O)n1 [Example 25-15, 2-[(2-ethylphenyl)amino]-4-[(1-oxo-1,2,3,4-tetrahydroisoquinolin-5-yl)amino]pyrimidine-5-carboxamide]
9.79 nM	COc1cc2c(cc1Nc1ncc(C(N)=O)c(N[C@H]3CC[C@@H](N)CC3)n1)CN(C)CC2 [Example 26-5, 4-[(cis-4-aminocyclohexyl)amino]-2-[(6-methoxy-2-methyl-1,2,3,4-tetrahydroisoquinolin-7-yl)amino]pyrimidine-5-carboxamide]
217 nM	NC(=O)c1cnc(Nc2ccc(F)cc2)nc1Nc1cccc2c1CCNC2=O [Example 25-5, 2-[(4-fluorophenyl)amino]-4-[(1-oxo-1,2,3,4-tetrahydroisoquinolin-5-yl)amino]pyrimidine-5-carboxamide]
199 nM	COc1cc(C(=O)N2CCC(N(C)C)C2)ccc1Nc1ncc(C(N)=O)c(Nc2ccccc2C(F)(F)F)n1 (stereo not shown) [Example 11-2, 2-((4-(3-(dimethylamino)pyrrolidine-1-carbonyl)-2-methoxyphenyl)amino)-4-((2-(trifluoromethyl)phenyl)amino)pyrimidine-5-carboxamide]
5.83 nM	COc1cc2c(cc1Nc1ncc(C(N)=O)c(Nc3ccccc3C3CCCCC3)n1)CN(C)CC2 [Example 13-1, 4-[(2-cyclohexylphenyl)amino]-2-[(6-methoxy-2-methyl-1,2,3,4-tetrahydroisoquinolin-7-yl)amino]pyrimidine-5-carboxamide]
136 nM	NC(=O)c1cnc(Nc2cccc3ccccc23)nc1Nc1cccc2c1CCNC2=O [Example 25-14, 2-[(naphthalen-1-yl)amino]-4-[(1-oxo-1,2,3,4-tetrahydroisoquinolin-5-yl)amino]pyrimidine-5-carboxamide]
0.23 nM	NC(=O)c1cnc(Nc2ccc3c(c2)CNCC3)nc1NC1CCc2cc(F)c(F)cc21 (stereo not shown) [Example 26-53, 4-[(5,6-difluoro-2,3-dihydro-1H-inden-1-yl)amino]-2-[(1,2,3,4-tetrahydroisoquinolin-7-yl)amino]pyrimidine-5-carboxamide]
3.19 nM	COc1cc2c(cc1Nc1ncc(C(N)=O)c(NCc3ccccc3O)n1)CN(C)CC2 [Example 26-57, 4-{[(2-hydroxyphenyl)methyl]amino}-2-[(6-methoxy-2-methyl-1,2,3,4-tetrahydroisoquinolin-7-yl)amino]pyrimidine-5-carboxamide]
2.61 nM	Cc1cccc(Nc2ncc(C(N)=O)c(Nc3cccc4c3CCNC4=O)n2)c1 [Example 25-19, 2-[(3-methylphenyl)amino]-4-[(1-oxo-1,2,3,4-tetrahydroisoquinolin-5-yl)amino]pyrimidine-5-carboxamide]

From US20230416225A1, “DIAMINOPYRIMIDINE CARBOXAMIDE INHIBITORS OF HPK1” (MERCK SHARP & DOHME LLC, priority 2020, published 2023)
